In patent publication US11826369B2, “Targeting the TLK1/NEK1 axis in prostate cancer” (Board of Supervisors of Louisiana State University and …, priority 2019, dated 2023):
Values joined by “and” are separate entries in the source; they are usually repeats but may differ in a detail not shown here. Identical values can stand only once. “Also recorded” adds a separate entry of the source.

How the values were obtained:
LNCaP xenografts = assay: LNCaP xenograft model; assay type: in vivo, NOD/SCID mice; conditions: IP bi-weekly
Method: Treatment started 19 days after implantation when the tumors measure ˜200 mm^3. Two independent experiment with 5 mice per group were carried out. J54 and Bicalutamide was dissolved in DMSO and diluted in corn oil 1:10 and administered IP bi-weekly. Sectioning and processing of the tissues were carried out in the FWCC Histology Service, using automated processes and equipment to provide uniform and standardized results. Indirect labeling was with ABC Elite: RTU Vectastain Elite Reagent, Vector #PK-7100; DAB: ImmPact DAB, Vector #SK-4105. Light counterstaining was done with hematoxylin. […] Note the weak pNek1 stain in the tumor from mice treated with J54, in contrast to the increase seen with BIC.
LNCaP Xenograft Model and Immunohistochemistry (IHC): All animals used in this study were approved by LSUHSC IACUC and following ARRIVE guidelines. Male NOD/SCID mice (5 per group) were purchased from Jackson labs. LNCaP cells were injected as described earlier. Mice were treated IP bi-weekly with J54 (5 mg/kg body weight—dose estimation derived from pharmacokinetics study) and/or Bicalutamide (100 mg/kg).
(§1) The inventors sought to establish if the addition of J54 could suppress the resurgence of tumor growth of LNCaP xenografts and their latter conversion to CRPC. Following formation of sizeable tumors (˜200 mm^3), castration or anti-androgens arrest the progression of LNCaP xenografts for some time (2-3 weeks), while subsequently the tumors start growing again at an accelerated rate which is refractory to ADT (AI). Therefore, the inventors injected LNCaP cells in matrigel in both flanks of NOD-SCID mice, and then randomly assigned them to four treatment groups (n=5 per group×2 independent experiments), as shown in FIGS. 13A-13C. […] The inventors should also point out that the inventors treated the mice with J54 only bi-weekly due to the favorable pharmacokinetics, where maximal plasma concentration of 100 ng/ml ([…]) were reached 2 h after IP injection, and was still present at −6 ng/ml (6 μM) after 24 h (FIG. 18A-18C).

[1] = test system: RWPE1 (normal prostate) cell line; assay: Cell proliferation assay, normal prostate cells; assay type: cell-based, human
Method: All experiments were conducted in triplicates. […] The cells were grown for 2-3 weeks and stained with crystal violet. All experiments were conducted in triplicates. […] The cell lines used were human “normal” RWPE-1, LNCaP, (LNCaP-derivative) C4-2B, 22RV1, DU14, PC3, and mouse TRAMP-C2. FIGS. 11C and 11D show cell proliferation of LNCaP and TRAMP-C2 were determined during a 3 days incubation with different concentration of J54 (MTS assay). All experiments were conducted in triplicates. […] Representative analysis of two independent experiments are shown.
J54 in combination with anti-androgen (Bicalutamide) induces apoptosis in AS PCa cells. […] The inventors thus tested the same panel of cells in androgen containing medium (FBS) by proliferation assays. […] Note that VCaP cells were 60% inhibited by J54 alone, consistent with their elevated replication stress-driven DDR and checkpoint activation (FIG. 12E), which when suppressed with J54 could lead to apoptosis. Clonogenic assays are unable to distinguish the effects of a DNA damaging agent, which can result in either an impaired or delayed resumption of growth (cell division) or loss of viability due to increased killing of the initial population. The inventors thus measured in LNCaP and TRAMP-C2 cells the early change in cell number (MTT assay) over 72 h with J54 alone.

C. elegans = assay: Behavioral assays in C. elegans; assay type: in vivo
Method: FIGS. 19A-19C show behavioral assays in C. elegans. In FIG. 15A, for the pharyngeal pumping assay, wild-type animals (N2 strain) were transferred to plates with diluted DMSO (Control) or drug (J-54 or trifluoperazine) at 160 μM final concentration for 90 min before quantifying pharyngeal pumping see SI methods). The inventors counted visible movement of the grinder (pharyngeal contractions) for 30 sec to obtain the pumping rate (N=45). […] Inhibition of pharyngeal pumping by trifluoperazine (TFP), a typical PTH antipsychotic, is attributed to its known activity as a dopamine and calmodulin antagonist. In FIG. 15B. foraging, regulated by serotonin and dopamine, was studied in wild-type animals evaluated in the presence of DMSO (Control) or J54 at a high dose of 160 μM vs. TFP at 40 μM. The number of omega turns (head touches body) and reversals were then counted over the next 3 min to quantify search behavior for each group (N=13 per group). […] Dopamine produces immobility in C. elegans after 2-3 hr of exposure. Antipsychotic drugs, such as haloperidol, that potently block D2 dopamine receptors largely counteract the effects of dopamine, i.e., more animals continue to move on plates that include dopamine plus drug. Wild-type animals were incubated on 60 agar plates with bacteria and diluted DMSO (Control) or J54 or haloperidol at 160 μM final concentrations. After 1 hr on these plates, they were transferred to 60 mm agar plates with bacteria that also contained dopamine (final concentration 25 mM) plus diluted DMSO (Control) or else J-54 or haloperidol at final concentrations of 160 μM. After 3 hr on the dopamine plates, the inventors examined movement and counted animals as moving if they traversed half their body length in either the forward or backward direction during a 5-sec observation period. The inventors then calculated the percentage of animals moving and repeated this experiment three times to confirm the effects of drug.
We then did a general assessment of mice following injections of J54. […]

[2] = Pharmacokinetics, plasma distribution after IP injection; assay type: in vivo, mice
Text: FIGS. 18A-18C show pharmacokinetics plasma distribution of J54.
as §1

## c1ccc2c(c1)Sc1ccccc1N2CCN1CCOCC1 [J54, 4-(2-(10H-phenothiazin-10-yl)ethyl) morpholine]
LNCaP xenografts; end of treatment
  tumor weight: significant suppression
LNCaP xenografts; J54 5 mg/kg, Bicalutamide 100 mg/kg
  tumor growth: significant suppression
[1]
  sensitivity of normal cells: insensitive; also recorded: non-toxic to normal cells
C. elegans; 160 μM, 90 min
  pharyngeal pumping rate: reduced the pumping rate but to a lesser extent than a much lower concentration of TFP
C. elegans; prolonged exposure
  toxicity to worms: not toxic to worms even after prolonged exposure
C. elegans; three studies
  behavioral effects attributable to DR2 activity: much weaker behavioral effects
[2]; IP injection
  maximal plasma concentration: 100 ng/ml and 35 μM
[2]; after IP injection
  time of maximal plasma concentration: 2 h
[2]; mouse, plasma, IP injection
  concentration at 24 h: 6 µM
